Patent US12059413B2, “Methods of inhibiting viruses using compositions targeting TSG101-ubiquitin interaction” (The Research Foundation for the State University of New York, priority 2016, dated 2024)

Key:
HIV-1 NL4-3 = assay: Specific virus infectivity by MAGI assay; type: cell-based; conditions: higher concentrations required
Procedure: FIG. 15A-D. N16 inhibits HIV-1 NL4-3 and Gag VLP production. A) Effect on virus production. Virus particles from N16-treated 293T cells transfected with pNL4-3 as determined by ELISA assay. Top, The compound was added 6 hr prior to DNA transfection and tissue culture media was harvested 24 hr later. Bottom, The compound was added at the indicated concentration 24 hr after DNA transfection and tissue culture media was harvested 24 hr later. Assay values were normalized to that of the DMSO carrier control. B) Effect on virus infectivity. Infectious viral particles per ng p24 as determined by MAGI assay. C) Left, Electron microscopy of particles at cell surface at 24 hr post-N16 addition; Right, Quantitative analysis of budding morphologies. […] Bottom, Quantitative analysis. […]
For production of virus particles, 293T cells were transfected with pNL4-3-ΔEnv and pIIIB Env3-1 plasmids and for virus-like particles (VLP), with pCMV-Gag-HA as previously described (Watanabe et al. (2013)). For specific infectivity, media-associated p24 was determined by ELISA (Immunodiagnostics, Inc.) and equivalent amounts of p24 were used to infect HeLa-CD4+-LTR-3 gal cells for infectivity measurement by the multinuclear activation of a galactosidase indicator (MAGI) assay. […] Virus particle release efficiency was calculated [VLP signal intensity/(VLP signal intensity+cell lysate signal intensity)]. […]

cells = assay: Cytotoxicity / cell metabolic activity on exposure to N16; type: cell-based
Source text: We investigated the specificity of the inhibitory effect. F15 and N16 impaired Tsg101-co-localization with Gag on the plasma membrane (c.f, FIG. 19) and reduced release of the VLPs assembled by Gag (c.f, FIG. 15). […] Cell metabolic activity was not affected after exposure to N16 for 24 hr; it decreased by less than 10% after exposure to N16 for 48 hr (not shown). Tsg101 localization to the midbody of dividing cells requires its recruitment to that location by centrosomal protein of 55k (CEP55) which binds a site in the Tsg101 Pro-rich domain (aa 154-166) (Lee, H. H., et al. (2008)). Finding this function unaffected at a concentration inhibitory to virus budding is consistent with the lack of any indication that cell division was reduced in the presence of N16. The lack of effect on this function also supports the specificity of N16 targeting as limited to functions of the Tsg101 UEV domain. EGF ligand-binding to EGFR on the cell surface signals receptor internalization, ubiquitination, and sequential ESCRT 0-, I-, II- and III-mediated transport to degradative compartments, ultimately lowering the EGFR steady-state level (Tomas, A., et al. (2014)). This trafficking requires the engagement of the P(T/S)AP-binding pocket in the Tsg101 UEV domain with the PSAP motif in hepatocyte growth factor-regulated tyrosine kinase substrate (Hrs), a component of ESCRT-0 (Lu, Q., et al. (2003)). The down-regulation function remained unimpaired at concentrations well above 50 JAM.

## COc1ccc2[nH]c([S+]([O-])Cc3ncc(C)c(OC)c3C)nc2n1 (stereo not shown) [N16, tenatoprazole]
HIV-1 NL4-3
  specific infectivity of the virus: diminished in dose-dependent fashion
cells; 50 μM, 24 hr exposure
  cytotoxicity: did not induce detectable cytotoxicity
cells; exposure to N16 for 24 hr
  cell metabolic activity: not affected
cells; exposure to N16 for 48 hr, not shown
  decrease of cell metabolic activity: less than 10%
